How the values were obtained:
KRAS G12D protein = target: T1, KRAS G12D protein (Homo sapiens, UniProt P01116, G12D); assay: KRAS degradation activity by Cell ELISA in AsPC-1 (Test Example 1); type: cell-based; conditions: AsPC-1 cells, cultured overnight with compound, corrected with β-actin, read-out: DC50 (50% degradation concentration of the amounts of KRAS)
T1 construct: host or cells: AsPC-1
Protocol: Test Example 1: Evaluation of KRAS Degradation Activity on Human G12D Mutant KRAS-Positive Pancreatic Cancer Line AsPC-1 (CRL-1682; ATCC)
The KRAS degradation activity of test compounds was evaluated by measuring the expression levels of KRAS G12D protein by Cell ELISA.
AsPC-1 cells were seeded at 20 μL per well on 384-well plates (from Greiner bio-one) to give 2.0×10^4 cells per well. As for the cell culture conditions, RPMI 1640 (from Sigma-Aldrich) medium containing 10% fetal bovine serum (from Cytiva) was used in the presence of 5% CO2 at 37° C.
The next day, the test compounds (10 points having final concentrations in the range of 10 μM to 0.3 nM) and DMSO (from FUJIFILM Wako Pure Chemical Corporation), which was the solvent for the test compounds, as a negative control were diluted 500-fold with a fresh medium and were added at 20 μL per well. The cells were cultured overnight.
The next day, the culture supernatant was removed, and 4% paraformaldehyde phosphate buffer (from FUJIFILM Wako Pure Chemical Corporation) was added at 20 μL per well. The plates were allowed to stand for 30 minutes at room temperature to thus immobilize the cells. Then, the supernatant was removed, and 0.1% Triton X-100 (from Amersham Biosciences)-containing Phosphate buffered saline (PBS; from FUJIFILM Wako Pure Chemical Corporation) was added at 20 μL per well. After allowing to stand for 10 minutes at room temperature, the supernatant was removed. PBS was added at 25 μL per well, and the supernatant was removed to thus wash each well. The washing was performed twice in total. Next, the supernatant was removed, and 0.5% sodium dodecyl sulfate (SDS; from Invitrogen)-containing PBS was added at 20 μL per well. After allowing to stand at room temperature for 10 minutes, the supernatant was removed by a centrifugal operation (using a centrifugal dehydrator machine, the supernatant was removed by the same method hereinafter). PBS was added at 25 μL per well, and the supernatant was removed to thus wash each well. The washing was performed twice in total. The supernatant was removed, and blocking solution (Intercept Blocking Buffer; from Li-COR Biosciences) was added at 20 μL per well. After allowing to stand for 30 minutes at room temperature, the supernatant was removed, and a solution obtained by diluting anti-β-actin antibody (Anti-beta Actin antibody [mAbcam 8226]-Loading Control; from abcam) 1,000-fold with blocking solution and a solution obtained by diluting anti-Ras (G12D Mutant Specific) antibody (Ras (G12D Mutant Specific) (D8H7) Rabbit mAb #14429; from Cell Signaling Technology) and anti-β-actin antibody (from abcam) 1,000-fold with blocking solution were respectively added to positive control wells and the other wells at 20 μL per well as a primary antibody. The plate was allowed to stand overnight at 4° C.
The next day, the supernatant was removed. PBS was added at 25 μL per well, and the supernatant was removed to thus wash each well. The washing was performed twice in total. The supernatant was removed, and a solution obtained by diluting Donkey anti-Mouse IgG H&L (IRDye 680RD) (from Li-COR Biosciences) and Goat anti-Rabbit IgG H&L (IRDye 800CW) (from Li-COR Biosciences) 1,000-fold with blocking solution was added at 20 μL per well as a secondary antibody. After allowing to stand for 1 hour at room temperature, the supernatant was removed. PBS was added at 25 μL per well, and the supernatant was removed to thus wash each well. The washing was performed twice in total. After removing the supernatant, the plate was dried with air at room temperature for 2 hours or more, and the 700 nm and 800 nm fluorescent signals were measured with Aerius (from Li-COR Biosciences). […]

[1] = tested on: phosphorylation of threonine 202 (Thr202) and tyrosine 204 (Tyr204) of ERK; assay: ERK phosphorylation inhibitory effect by Cell ELISA in AsPC-1 (Test Example 2); type: cell-based, human; conditions: Homo sapiens, ASPC1, AsPC-1 cells, cultured overnight with compound; 1 μM trametinib taken as 0%
Protocol: Test Example 2: Evaluation of ERK Phosphorylation Inhibitory Effect on Human G12D Mutant KRAS-Positive Pancreatic Cancer Line AsPC-1
The ERK phosphorylation inhibitory effect of test compounds was evaluated by measuring phosphorylation of threonine 202 (Thr202) and tyrosine 204 (Tyr204) of ERK located downstream of the KRAS signal by Cell ELISA.
AsPC-1 cells were seeded on 384-well plates at 36 μL/well to give 2.0×10^4 cells per well. As for the cell culture conditions, RPMI 1640 medium containing 10% fetal bovine serum was used in the presence of 5% CO2 at 37° C.
The next day, the test compounds (10 points having final concentrations in the range of 10 μM to 0.3 nM), trametinib (MEK inhibitor) of a final concentration of 1 μM as positive control and DMSO, which was the solvent for the test compounds, as negative control were diluted 100-fold with a fresh medium and were added at 4 μL per well. The cells were cultured overnight. After culturing, 30% glyoxal solution (40% glyoxal [from Nacalai Tesque] was diluted with PBS) was quickly added at 30 μL per well, and the plate was allowed to stand for 60 minutes at room temperature to thus immobilize the cells. Then, the plate was centrifuged to remove the supernatant (using a centrifugal dehydrator machine, the supernatant was removed by the same method hereinafter), and 0.1% Triton X-100-containing PBS was added at 20 μL per well. After allowing to stand for 10 minutes at room temperature, the supernatant was removed, and the same operation was further repeated. Next, 0.5% SDS-containing PBS was added at 20 μL per well, and after allowing to stand at room temperature for 30 minutes, the supernatant was removed. Subsequently, blocking solution (Intercept Blocking Buffer) was added at 20 μL per well, and the plate was allowed to stand for 1 hour at room temperature. The supernatant was removed, and an ERK (Thr202/Tyr204) phosphorylation antibody (Phospho-p44/42 MAPK (Erk 1/2) (Thr202/Tyr204) (D13.14.4E) XP Rabbit mAb; from Cell Signaling Technology) diluted 2,500-fold with blocking solution was added at 15 μL per well as a primary antibody. The plates were allowed to stand at 4° C. overnight.
The next day, the supernatant was removed. 0.05% Tween-20 (from Thermo Fisher Scientific)-containing PBS was added at 50 μL per well, and the supernatant was removed to thus wash each well. The washing was performed three times in total. After washing, Goat anti-Rabbit IgG H&L (IRDye 800CW) diluted 1,000-fold with blocking solution was added at 15 μL per well as a secondary antibody, and the plates were allowed to stand for 1 hour at room temperature. The supernatant was removed, and each well was washed three times with 0.05% Tween-20-containing PBS in the same manner as after the primary antibody reaction. After removing the supernatant, the plates were dried with air at room temperature for 3 hours or more, and the 800-nm fluorescent signals were measured with Aerius.
With the signaling value at the time of addition of DMSO taken as 100% and with the signaling value at the time of addition of 1 μM trametinib taken as 0%, the 50% inhibitory concentration values (IC50) were calculated by Sigmoid-Emax nonlinear regression analysis.

[2] = tested on: human G12D mutant KRAS-positive pancreatic cancer line AsPC-1; assay: Non-anchorage-dependent cell growth inhibition, spheroid 3D cell culture (Test Example 3); type: cell-based; conditions: Homo sapiens, ASPC1, 144 h, AsPC-1 spheroid 3D culture, 6 days, CellTiter Glo 2.0
Protocol: Test Example 3: Evaluation of Non-Anchorage-Dependent Cell Growth Inhibitory Effect on Human G12D Mutant KRAS-Positive Pancreatic Cancer Line AsPC-1
The non-anchorage-dependent cell growth inhibitory effect of test compounds was evaluated by spheroid 3D cell culture.
AsPC-1 cells were seeded on low-cell-adhesive round bottom 384-well plates (PrimeSurface: from Sumitomo Bakelite) at 36 μL/well to give 5×10^2 cells per well. As for the cell culture conditions, RPMI 1640 medium containing 10% fetal bovine serum was used in the presence of 5% CO2 at 37° C.
The next day, the test compounds (10 or 6 points having final concentrations in the range of 10 μM to 0.3 nM) and DMSO, which was the solvent for the test compounds, as a negative control were diluted 100-fold with a fresh medium and were added at 4 μL per well. After culturing in the presence of 5% CO2 at 37° C. for 6 days, CellTiter Glo 2.0 (from Promega) was added at 20 μL per well. After stirring with a plate mixer (from FINEPCR) at room temperature for 1 hour, the luminescent signals were measured with ARVO X3 (from PerkinElmer).
With the signaling value in treatment with DMSO taken as 100% and with the signaling value in the medium alone without cells taken as 0%, the 50% inhibitory concentration values (IC50) were calculated by Sigmoid-Emax nonlinear regression analysis.

T1 sequence (P01116 1-188 isoform P01116-2 G12D): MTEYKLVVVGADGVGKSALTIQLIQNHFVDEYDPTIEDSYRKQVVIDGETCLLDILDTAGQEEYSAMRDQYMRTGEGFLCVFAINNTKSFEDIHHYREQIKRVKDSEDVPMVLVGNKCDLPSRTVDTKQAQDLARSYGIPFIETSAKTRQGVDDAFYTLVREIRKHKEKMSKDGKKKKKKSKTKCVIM

| SMILES | DC50 (KRAS G12D protein) [nM] | IC50 [1] [nM] | IC50 [2] [nM] |
| --- | --- | --- | --- |
| CO[C@H](C)COc1nc(N(C)[C@H]2CCNC2)c2cc(C3CC3)c(-c3c(C)c(F)cc4[nH]ncc34)c(OCc3ccc(-c4cn([C@H](C(=O)N5C[C@H](O)C[C@H]5C(=O)N[C@@H](CO)c5ccc(-c6scnc6C)cc5)C(C)C)nn4)cc3)c2n1 (atropisomer, axis not shown) [Example 16] | 26 | 16 | 14 |
| Cc1ncsc1-c1ccc([C@H](CO)NC(=O)[C@@H]2C[C@@H](O)CN2C(=O)[C@H](C(C)C)n2cc(-c3ccc(COc4c(-c5c(C)c(F)cc6[nH]ncc56)c(C5CC5)cc5c(N(C)[C@H]6CCNC6)nc(OC[C@H]6CCOC6)nc45)cc3)nn2)cc1 (atropisomer, axis not shown) [Example 17] | 74 | 7 | 8 |
| Cc1ncsc1-c1ccc([C@H](CO)NC(=O)[C@@H]2C[C@@H](O)CN2C(=O)[C@H](C(C)C)n2cc(-c3ccc(COc4c(-c5c(C)c(F)cc6[nH]ncc56)c(C5CC5)cc5c(N(C)[C@H]6CCNC6)nc(OC[C@H]6CCN(C)C6)nc45)cc3)nn2)cc1 (atropisomer, axis not shown) [Example 18] | 508 | 100 | 73 |
| Cc1ncsc1-c1ccc([C@H](CO)NC(=O)[C@@H]2C[C@@H](O)CN2C(=O)[C@H](C(C)C)n2cc(-c3ccc(COc4c(-c5c(C)c(F)cc6[nH]ncc56)c(C5CC5)cc5c(N(C)[C@H]6CCNC6)nc(O[C@@H](C)[C@H](C)O)nc45)cc3)nn2)cc1 (atropisomer, axis not shown) [Example 19] | 91 | 95 | 50 |
| CO[C@@H](C)[C@H](C)Oc1nc(N(C)[C@H]2CCNC2)c2cc(C3CC3)c(-c3c(C)c(F)cc4[nH]ncc34)c(OCc3ccc(-c4cn([C@H](C(=O)N5C[C@H](O)C[C@H]5C(=O)N[C@@H](CO)c5ccc(-c6scnc6C)cc5)C(C)C)nn4)cc3)c2n1 (atropisomer, axis not shown) [Example 20] | 41 | 38 | 21 |
| CO[C@@H](C)COc1nc(N(C)[C@H]2CCNC2)c2cc(C3CC3)c(-c3c(C)c(F)cc4[nH]ncc34)c(OCc3ccc(-c4cn([C@H](C(=O)N5C[C@H](O)C[C@H]5C(=O)N[C@@H](CO)c5ccc(-n6ccnc6C)cc5)C(C)C)nn4)cc3)c2n1 (atropisomer, axis not shown) [Example 21] | 33 | 47 | 53 |
| Cc1ncsc1-c1ccc([C@H](CO)NC(=O)[C@@H]2C[C@@H](O)CN2C(=O)[C@H](C(C)C)n2cc(-c3ccc(COc4c(-c5c(C)c(F)cc6[nH]ncc56)c(C5CC5)cc5c(N(C)[C@H]6CCNC6)nc(OC[C@@H]6CCOC6)nc45)cc3)nn2)cc1 (atropisomer, axis not shown) [Example 23] | 31 | 13 | 12 |
| COCCOc1nc(N(C)[C@H]2CCNC2)c2cc(C3CC3)c(-c3c(C)c(F)cc4[nH]ncc34)c(OCc3ccc(-c4cn([C@H](C(=O)N5C[C@H](O)C[C@H]5C(=O)N[C@@H](CO)c5ccc(-c6scnc6C)cc5)C(C)C)nn4)cc3)c2n1 (atropisomer, axis not shown) [Example 24] | 48 | 15 | 26 |
| CCn1nccc1-c1ccc([C@H](CO)NC(=O)[C@@H]2C[C@@H](O)CN2C(=O)[C@H](C(C)C)n2cc(-c3ccc(COc4c(-c5c(C)c(F)cc6[nH]ncc56)c(C5CC5)cc5c(N(C)[C@H]6CCNC6)nc(OC[C@H](C)OC)nc45)cc3)nn2)nc1 (atropisomer, axis not shown) [Example 25] | 75 | 6 | 6 |
| CCn1nccc1-c1ccc([C@H](CO)NC(=O)[C@@H]2C[C@@H](O)CN2C(=O)[C@H](C(C)C)n2cc(-c3ccc(COc4c(-c5c(C)c(F)cc6[nH]ncc56)c(C5CC5)cc5c(N(C)[C@H]6CCNC6)nc(OC[C@@H]6CCCO6)nc45)cc3)nn2)cc1 (atropisomer, axis not shown) [Example 26] | 22 | 2 | 3 |
| Cc1c(F)cc2[nH]ncc2c1-c1c(C2CC2)cc2c(N(C)[C@H]3CCNC3)cc(OC[C@@H]3CCCO3)nc2c1OCc1ccc(-c2cn([C@H](C(=O)N3C[C@H](O)C[C@H]3C(=O)N[C@@H](CO)c3ccc(-n4ccnc4C)cc3)C(C)C)nn2)cc1 (atropisomer, axis not shown) [Example 27] | 68 | 7 | 7 |
